What was measured:
[1] = system: Rattus norvegicus; experiment: Antidepressant activity in Wistar rat assessed as immobility time at 45 mg/kg, ip measured for 5 mins by forced swim test (reference value: 271.9 +/- 7.2 sec); assay type: functional
[2] = Oral bioavailability in Wistar rat at 10 ml/kg measured upto 24 hrs by LC-MS/MS analysis; assay type: ADME, organism-based; details: in vivo
[3] = Half life in Wistar rat at 10 ml/kg, po or 2 ml/kg, iv measured upto 24 hrs by LC-MS/MS analysis; assay type: ADME, organism-based; details: in vivo
[4] = Cmax in Wistar rat at 10 ml/kg, po or 2 ml/kg, iv measured upto 24 hrs by LC-MS/MS analysis; assay type: ADME, organism-based; details: in vivo
[5] = Metabolic stability in human liver microsomes assessed as compound metabolism incubated for 30 mins in presence of NADPH by LC-MS/MS analysis; assay type: ADME, Microsome; details: read-out: Drug metabolism
[6] = molecular target: Cytochrome P450 2D6 (Homo sapiens, UniProt P10635); experiment: Inhibition of CYP2D6 in human liver microsomes using dextromethorphan as substrate incubated for 12 min in presence of NADPH by LC-MS/MS analysis; assay type: ADME
Chain of Cytochrome P450 2D6 (P10635 whole entry): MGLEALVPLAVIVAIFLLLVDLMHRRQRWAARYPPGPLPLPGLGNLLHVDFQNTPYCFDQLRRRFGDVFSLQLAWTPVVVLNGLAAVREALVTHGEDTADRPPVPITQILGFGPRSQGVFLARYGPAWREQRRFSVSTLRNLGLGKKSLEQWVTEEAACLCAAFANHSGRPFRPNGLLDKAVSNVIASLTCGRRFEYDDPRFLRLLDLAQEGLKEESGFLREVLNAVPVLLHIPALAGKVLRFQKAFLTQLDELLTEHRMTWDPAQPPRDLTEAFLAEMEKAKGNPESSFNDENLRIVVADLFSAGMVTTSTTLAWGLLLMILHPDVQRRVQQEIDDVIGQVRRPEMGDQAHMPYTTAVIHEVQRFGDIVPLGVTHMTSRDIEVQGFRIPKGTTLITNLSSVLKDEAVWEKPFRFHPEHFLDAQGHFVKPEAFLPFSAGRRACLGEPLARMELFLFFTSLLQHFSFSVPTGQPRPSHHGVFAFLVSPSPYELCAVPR

[7] = Ratio of drug level in brain to plasma in Wistar rat at 10 ml/kg, po or 2 ml/kg, iv measured upto 24 hrs by LC-MS/MS analysis; assay type: ADME, organism-based; details: brain and plasma, read-out: BPR
[8] = molecular target: Cytochrome P450 3A4 (Homo sapiens, UniProt P08684); experiment: Inhibition of CYP3A4 in human liver microsomes using midazolam as substrate incubated for 2 min in presence of NADPH by LC-MS/MS analysis; assay type: ADME
Chain of Cytochrome P450 3A4 (P08684 whole entry): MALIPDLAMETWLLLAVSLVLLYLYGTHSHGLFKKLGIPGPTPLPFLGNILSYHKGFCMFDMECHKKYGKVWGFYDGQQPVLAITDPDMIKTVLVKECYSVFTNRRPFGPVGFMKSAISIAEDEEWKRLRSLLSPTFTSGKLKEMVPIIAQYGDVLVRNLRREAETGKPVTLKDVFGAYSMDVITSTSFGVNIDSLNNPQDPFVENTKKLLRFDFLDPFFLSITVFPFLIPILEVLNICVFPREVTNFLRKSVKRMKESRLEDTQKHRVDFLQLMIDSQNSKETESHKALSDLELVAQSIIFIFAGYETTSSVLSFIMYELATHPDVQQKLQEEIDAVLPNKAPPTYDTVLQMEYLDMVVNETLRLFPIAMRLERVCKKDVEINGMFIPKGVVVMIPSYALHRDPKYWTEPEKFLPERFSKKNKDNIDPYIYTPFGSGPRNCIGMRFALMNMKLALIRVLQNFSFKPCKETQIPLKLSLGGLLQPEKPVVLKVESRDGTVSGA

[9] = molecular target: Neuronal acetylcholine receptor; alpha4/beta2 (Homo sapiens, UniProt P17787+P43681); experiment: Displacement of [3H]cytisine from human alpha4beta2 nAChR expressed in CHOK1 cell membrane by microbeta scintillation counting method; assay type: cell membranes, CHO-K1
Chain of Neuronal acetylcholine receptor; alpha4/beta2 (P17787 whole entry): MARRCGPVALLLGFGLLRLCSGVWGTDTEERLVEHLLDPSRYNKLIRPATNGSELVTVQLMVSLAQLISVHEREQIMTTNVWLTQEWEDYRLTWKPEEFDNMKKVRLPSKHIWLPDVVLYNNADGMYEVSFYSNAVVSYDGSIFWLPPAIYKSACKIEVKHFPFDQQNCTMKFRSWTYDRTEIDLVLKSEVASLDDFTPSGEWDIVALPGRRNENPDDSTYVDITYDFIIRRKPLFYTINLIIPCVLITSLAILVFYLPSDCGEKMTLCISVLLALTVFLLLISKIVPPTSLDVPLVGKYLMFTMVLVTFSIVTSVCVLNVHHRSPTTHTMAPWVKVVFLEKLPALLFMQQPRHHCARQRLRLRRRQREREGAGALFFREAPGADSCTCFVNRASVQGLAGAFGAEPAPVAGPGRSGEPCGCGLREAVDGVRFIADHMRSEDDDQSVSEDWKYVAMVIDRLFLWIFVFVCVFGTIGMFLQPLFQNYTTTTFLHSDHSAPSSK
Chain of Neuronal acetylcholine receptor; alpha4/beta2 (P43681 whole entry): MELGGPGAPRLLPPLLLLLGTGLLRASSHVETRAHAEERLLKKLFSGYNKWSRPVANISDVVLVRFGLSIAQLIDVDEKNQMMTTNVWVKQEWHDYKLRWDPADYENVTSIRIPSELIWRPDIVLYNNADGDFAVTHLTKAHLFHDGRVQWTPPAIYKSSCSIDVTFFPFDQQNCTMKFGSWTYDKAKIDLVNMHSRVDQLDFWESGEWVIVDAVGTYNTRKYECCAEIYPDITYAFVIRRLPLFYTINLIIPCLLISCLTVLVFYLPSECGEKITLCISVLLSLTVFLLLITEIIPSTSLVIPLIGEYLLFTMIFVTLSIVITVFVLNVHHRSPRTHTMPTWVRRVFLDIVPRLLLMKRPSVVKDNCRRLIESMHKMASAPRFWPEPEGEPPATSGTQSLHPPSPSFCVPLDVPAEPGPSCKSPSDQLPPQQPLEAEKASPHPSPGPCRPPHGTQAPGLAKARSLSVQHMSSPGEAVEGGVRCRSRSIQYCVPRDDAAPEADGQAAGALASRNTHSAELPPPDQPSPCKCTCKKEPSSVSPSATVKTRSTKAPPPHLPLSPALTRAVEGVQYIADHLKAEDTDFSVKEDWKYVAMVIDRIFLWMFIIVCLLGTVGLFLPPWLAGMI

[10] = molecular target: Neuronal acetylcholine receptor; alpha3/beta4 (Homo sapiens, UniProt P30926+P32297); experiment: Displacement of [3H]epibatidine from human alpha3beta4 nAChR expressed in IMR32 cell membrane by microbeta scintillation counting method; assay type: cell membranes, IMR-32
Chain of Neuronal acetylcholine receptor; alpha3/beta4 (P30926 whole entry): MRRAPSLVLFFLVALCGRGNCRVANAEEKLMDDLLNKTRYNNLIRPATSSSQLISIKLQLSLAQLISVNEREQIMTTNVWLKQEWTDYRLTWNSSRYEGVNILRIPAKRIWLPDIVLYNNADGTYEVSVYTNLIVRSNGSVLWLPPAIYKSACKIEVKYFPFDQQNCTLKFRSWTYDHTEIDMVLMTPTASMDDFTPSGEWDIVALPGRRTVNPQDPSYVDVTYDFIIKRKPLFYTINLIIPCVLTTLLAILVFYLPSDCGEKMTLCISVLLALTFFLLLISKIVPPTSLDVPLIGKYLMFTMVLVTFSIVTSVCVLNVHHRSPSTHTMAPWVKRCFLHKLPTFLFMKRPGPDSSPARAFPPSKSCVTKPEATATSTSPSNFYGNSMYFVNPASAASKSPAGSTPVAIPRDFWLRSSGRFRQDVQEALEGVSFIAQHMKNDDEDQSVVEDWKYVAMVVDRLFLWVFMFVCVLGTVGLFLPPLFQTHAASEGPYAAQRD
Chain of Neuronal acetylcholine receptor; alpha3/beta4 (P32297 whole entry): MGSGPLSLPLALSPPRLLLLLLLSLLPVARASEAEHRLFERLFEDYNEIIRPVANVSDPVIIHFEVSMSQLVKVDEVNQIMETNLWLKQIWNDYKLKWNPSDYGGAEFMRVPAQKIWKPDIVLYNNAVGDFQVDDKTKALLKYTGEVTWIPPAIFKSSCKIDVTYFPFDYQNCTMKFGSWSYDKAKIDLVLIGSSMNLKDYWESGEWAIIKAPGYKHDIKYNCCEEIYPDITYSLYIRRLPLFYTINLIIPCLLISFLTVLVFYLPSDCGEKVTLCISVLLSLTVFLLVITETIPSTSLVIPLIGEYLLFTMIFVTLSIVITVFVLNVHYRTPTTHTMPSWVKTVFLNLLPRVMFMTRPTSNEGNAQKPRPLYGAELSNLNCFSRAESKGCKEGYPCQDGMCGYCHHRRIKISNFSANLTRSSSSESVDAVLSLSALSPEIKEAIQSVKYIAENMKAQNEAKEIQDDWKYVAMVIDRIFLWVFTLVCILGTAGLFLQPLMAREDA

[11] = system: Rattus norvegicus; experiment: Antidepressant activity in Wistar rat assessed as reduction in immobility at 1 mg/kg, po administrated for 3 days and measured for 5 mins by forced swim test relative to control; assay type: functional; design: scale not given: the % may be the effect or the level left
[12] = system: Rattus norvegicus; experiment: Antidepressant activity in Wistar rat assessed as reduction in immobility at 3 mg/kg, po administrated for 3 days and measured for 5 mins by forced swim test relative to control; assay type: functional; design: scale not given: the % may be the effect or the level left
[13] = AUC in Wistar rat at 10 ml/kg, po or 2 ml/kg, iv measured upto 24 hrs by LC-MS/MS analysis; assay type: ADME, organism-based; details: in vivo
[14] = system: Rattus norvegicus; experiment: Antidepressant activity in Wistar rat assessed as reduction in immobility at 10 mg/kg, po administrated for 3 days and measured for 5 mins by forced swim test relative to control; assay type: functional; design: scale not given: the % may be the effect or the level left
[15] = Metabolic stability in rat liver microsomes assessed as compound metabolism incubated for 30 mins in presence of NADPH by LC-MS/MS analysis; assay type: ADME, Microsome; details: read-out: Drug metabolism

## CN(C)CCCN1c2ccccc2CCc2ccccc21 [IMIPRAMINE]
[1]
  Time: 176.5 s

## Cl.Clc1ncccc1OC[C@@H]1C[C@H]2C[C@H]2N1
[2]
  bioavailability: 54%
[3]
  half-life: 2.15 h
[4]
  Cmax: 0.921 µg/mL
[5]
  metabolised at 0.5 h: 29.5%
[6]
  IC50: > 42 µM
[7]
  Kp at 24 h: 3.6
[8]
  IC50: > 45 µM
[9]
  Ki: 0.0175 µM
[10]
  Ki: > 10 µM
[11]
  Activity: 10%
[12]
  Activity: 24.7%
[13]
  AUC at 24 h: 2.16 µg·h/mL
[14]
  Activity: 15.8%
[15]
  metabolised at 0.5 h: 14.9%

— ChEMBL document CHEMBL4602676, “Discovery and Development of 3-(6-Chloropyridine-3-yloxymethyl)-2-azabicyclo[3.1.0]hexane Hydrochloride (SUVN-911): A Novel, Potent, Selective, and Orally Active Neuronal Nicotinic Acetylcholine α4β2 Receptor Antagonist for the Treatment of Depression” (J Med Chem, 2020)
